Experimental findings from ChEMBL document CHEMBL1255418, “Occurrence of ST23 complex phylogroup A Escherichia coli isolates producing extended-spectrum AmpC beta-lactamase in a French hospital” (2010) are described below.

SMILES strings stand for the structures. ≈ marks a conversion by molar mass, not a printed value. Where only a bound is given, the exact number is not on record here.

What all share (format): functional
For assay [1], the system named is Escherichia coli. Put plainly: Antimicrobial activity against AmpC producing Escherichia coli Top10 isolate 7014517.
The subject of assay [2] is Escherichia coli. Put plainly: Antimicrobial activity against Escherichia coli isolate 7008211 with AmpC beta-lactamase H296P mutation.
Assay [3] concerns Escherichia coli. Put plainly: Antimicrobial activity against Escherichia coli isolate 7008153 with AmpC beta-lactamase H296P mutation.
Assay [4] has as its system Escherichia coli. Put plainly: Antimicrobial activity against Escherichia coli isolate 7001178 with AmpC beta-lactamase S287N mutation.
For assay [5], the system named is Escherichia coli. In words: Antimicrobial activity against Escherichia coli isolate 4009273 with AmpC beta-lactamase S287N mutation.
For assay [6], the system named is Escherichia coli. Put plainly: Antimicrobial activity against Escherichia coli isolate 5000869 with AmpC beta-lactamase H296P mutation.
Assay [7] has as its system Escherichia coli. In words: Antimicrobial activity against Escherichia coli isolate 7008710 with AmpC beta-lactamase S287N mutation.
Assay [8] relates to Escherichia coli. In words: Antimicrobial activity against Escherichia coli isolate 7010738 with AmpC beta-lactamase H296P mutation.
Assay [9] relates to Escherichia coli. In words: Antimicrobial activity against Escherichia coli isolate 7014517 with AmpC beta-lactamase 295 Ins LAA mutation.
Assay [10] relates to Escherichia coli. Put plainly: Antimicrobial activity against Escherichia coli isolate 8009162 with AmpC beta-lactamase A292V mutation.
For assay [11], the system named is Escherichia coli. In words: Antimicrobial activity against Escherichia coli isolate 8009389 with AmpC beta-lactamase H296P mutation.
The test system of assay [12] is Escherichia coli. Put plainly: Antimicrobial activity against Escherichia coli isolate 8009989 with AmpC beta-lactamase H296P mutation.
Assay [13] concerns Escherichia coli. Put plainly: Antimicrobial activity against Escherichia coli isolate 7014517 AmpC with LAA insertion at position 295.
Assay [14] deals with Escherichia coli. Put plainly: Antimicrobial activity against Escherichia coli isolate 8009162 AmpC with A292V mutation.
Assay [15] has as its system Escherichia coli. In words: Antimicrobial activity against AmpC producing Escherichia coli Top10 isolate 8009162.
The test system of assay [16] is Escherichia coli. Put plainly: Antimicrobial activity against wild-type AmpC producing Escherichia coli ATCC 25922.
The subject of assay [17] is Escherichia coli. Put plainly: Antimicrobial activity against AmpC producing Escherichia coli Top10 isolate 25922.
The test system of assay [18] is Escherichia coli. In words: Antimicrobial activity against Escherichia coli Top10.

On to `CO/N=C(\C(=O)N[C@@H]1C(=O)N2C(C(=O)[O-])=C(C[N+]3(C)CCCC3)CS[C@H]12)c1csc(N)n1` [CEFEPIME], for which the MIC in assay [1] came to 4 µg/mL (≈ 8.32 µM); in [2], 16 µg/mL (≈ 33.3 µM); in assay [3] it was 16 µg/mL (≈ 33.3 µM); in [4] it was 2 µg/mL (≈ 4.16 µM); in assay [5], 4 µg/mL (≈ 8.32 µM); in [6], 4 µg/mL (≈ 8.32 µM). For the same molecule, the minimal inhibitory concentration (MIC) in [7] stood at 8 µg/mL (≈ 16.6 µM); in assay [8], 8 µg/mL (≈ 16.6 µM); in assay [9] it was 8 µg/mL (≈ 16.6 µM); in [10], 0.75 µg/mL (≈ 1.56 µM); in assay [11], 16 µg/mL (≈ 33.3 µM); in assay [12], 8 µg/mL (≈ 16.6 µM). Moreover, the minimal inhibitory concentration (MIC) was 8 µg/mL (≈ 16.6 µM) in [13]; 0.75 µg/mL (≈ 1.56 µM) in assay [14]; 0.75 µg/mL (≈ 1.56 µM) in assay [15]; less than 0.06 µg/mL in assay [16]; 0.06 µg/mL (≈ 0.125 µM) in [17]; less than 0.06 µg/mL in assay [18].

For the molecule `CO/N=C(\C(=O)N[C@@H]1C(=O)N2C(C(=O)O)=C(COC(C)=O)CS[C@H]12)c1csc(N)n1` [CEFOTAXIME], the MIC in [1] was found to be 32 µg/mL (≈ 70.3 µM); in assay [2] it was 8 µg/mL (≈ 17.6 µM); in [3], 16 µg/mL (≈ 35.1 µM); in [4], 8 µg/mL (≈ 17.6 µM); in assay [5] it was 8 µg/mL (≈ 17.6 µM); in assay [6], 4 µg/mL (≈ 8.78 µM). Besides, the minimal inhibitory concentration (MIC) amounted to 16 µg/mL (≈ 35.1 µM) in assay [7]; 8 µg/mL (≈ 17.6 µM) in assay [8]; 16 µg/mL (≈ 35.1 µM) in assay [9]; 8 µg/mL (≈ 17.6 µM) in assay [10]; 8 µg/mL (≈ 17.6 µM) in assay [11]; 8 µg/mL (≈ 17.6 µM) in assay [12]. The MIC in assay [13] is 16 µg/mL (≈ 35.1 µM); in assay [14], 8 µg/mL (≈ 17.6 µM); in assay [15], 12 µg/mL (≈ 26.3 µM); in assay [16], less than 0.06 µg/mL; in assay [17], 0.75 µg/mL (≈ 1.65 µM); in assay [18], less than 0.06 µg/mL.

Regarding `CC(C)(O/N=C(\C(=O)N[C@@H]1C(=O)N2C(C(=O)[O-])=C(C[n+]3ccccc3)CS[C@H]12)c1csc(N)n1)C(=O)O` [CEFTAZIDIME], the minimum inhibitory concentration (MIC) in [1] is more than 256 µg/mL; in assay [2] it was not below 64 µg/mL; in assay [3], not below 64 µg/mL; in assay [4], not below 64 µg/mL; in [5] it was not below 64 µg/mL; in [6], not below 64 µg/mL. In addition, the MIC in assay [7], in assay [8], in assay [9], in [10], in assay [11] and in assay [12] was not below 64 µg/mL throughout. The MIC was 64 µg/mL (≈ 117 µM) in assay [13]; 64 µg/mL (≈ 117 µM) in assay [14]; more than 256 µg/mL in [15]; 0.09 µg/mL (≈ 0.165 µM) in assay [16]; 4 µg/mL (≈ 7.32 µM) in assay [17]; less than 0.06 µg/mL in [18].
